Counter-ions that a name gives are not always drawn.
Columns and labels:
HMG-CoA reductase = test: HMG-CoA Reductase Isolation And Assay (ammonium sulfate precipitated enzyme from rat liver); format: biochemical, male Wistar rats; conditions: racemic mixture
Experimental: Livers were harvested from male Wistar rats (250 g) following a five day feeding with powdered chow containing 2% cholestyramine. Ammonium sulfate precipitated HMG-CoA reductase was prepared from these livers according to the method of Heller, et. al. (Heller, R. A. Shrewsbury, M. A. Journal of Biological Chemistry, 251, 1976, 3815-3822). HMG-CoA reductase activity was measured using a modification of the procedure of Edwards, et. al. (Edwards, P. A., Lemongello, […]. Journal of Lipid Research, 20, 1979, 40-46). The effects of compounds on HMG-CoA reductase activity were determined by combining the compound with the enzyme and preincubating for 10 minutes prior to addition of the substrate […].

Hep-G2 cells = test: Cell Culture Cholesterol Biosynthesis Assay; format: cell-based; conditions: Homo sapiens, racemic mixture
Experimental: When the cells were 2/3 confluent, they were fed MEM containing Earles salts and delipidated serum protein (DLP) at 5 mg/mL and then incubated for a period of 24 h. DLP was prepared according to the procedure of Rothblat, et. al. ([…]., Howard, B. V. In Vitro (Rockville), 12, 1976, 554-557). The DLP medium was then removed and 3.3 mL of media containing the drug indicated was added. […] Fatty acids were extracted and digitonin precipitable sterols were recovered according the procedure of Kanduch and Saucier (Kandutch, A. A., Saucier, S. E. Journal of Biological Chemistry, 244, 1969, 2299-2305). To adjust for cell number per flask, the cholesterol synthesized was normalized to the fatty acids synthesized and results were expressed as percent inhibition vs. control.

| SMILES | IC50 (HMG-CoA reductase; Table III) | IC50 (Hep-G2 cells; HepG2, Table III) | further results |
| --- | --- | --- | --- |
| CCOC(=O)C[C@H](O)C[C@H](O)/C=C/c1c2c(nn1-c1ccc(F)cc1)C(Cc1ccc(C)cc1)CCC2 (stereo partly drawn) [Compound 62] |  |  | IC50 (HMG-CoA reductase; Table IV): 70 nM; IC50 (Hep-G2 cells; HepG2, Table IV): 200 nM |
| O=C(O)C[C@H](O)C[C@H](O)/C=C/c1nn(-c2ccc(F)cc2)c2c1CCCC2Cc1ccc(F)cc1 (stereo partly drawn) [Compound 3] |  |  | IC50 (HMG-CoA reductase; Table II): 31000 nM; IC50 (Hep-G2 cells; HepG2, Table II): 27000 nM |
| O=C(O)C[C@H](O)C[C@H](O)/C=C/c1nn(-c2ccc(F)cc2)c2c1CCCC2CC=Cc1ccccc1 (stereo partly drawn) [Compound 8] |  |  | IC50 (HMG-CoA reductase; Table II): 3000 nM |
| Cc1ccc(CC2CCCc3c2nn(-c2ccc(F)cc2)c3/C=C/[C@@H](O)C[C@@H](O)CC(=O)O)cc1 (stereo partly drawn) [Compound 19] | 19 nM | 130 nM |  |
| O=C(O)C[C@H](O)C[C@H](O)/C=C/c1c2c(nn1-c1ccc(F)cc1)C(Cc1ccccc1Cl)CCC2 (stereo partly drawn) [Compound 12] | 100 nM | 1300 nM |  |
| CCOC(=O)C[C@H](O)C[C@H](O)/C=C/c1c2c(nn1-c1ccc(F)cc1)C(Cc1ccc(C(C)(C)C)cc1)CCC2 (stereo partly drawn) [Compound 64] |  |  | IC50 (HMG-CoA reductase; Table IV): 30 nM |
| O=C(O)C[C@H](O)C[C@H](O)/C=C/c1c2c(nn1-c1ccc(F)cc1)C(CC=Cc1ccccc1)CCC2 (stereo partly drawn) [Compound 34] | 32 nM | 1300 nM |  |
| O=C(O)C[C@H](O)C[C@H](O)/C=C/c1c2c(nn1-c1ccc(F)cc1)CCC2 (relative stereo) [Compound 10] | 5100 nM |  |  |
| O=C(O)C[C@H](O)C[C@H](O)/C=C/c1c2c(nn1-c1ccc(F)cc1)CCCCC2 (relative stereo) [Compound 37] | 3800 nM |  |  |
| O=C(O)C[C@H](O)C[C@H](O)/C=C/c1c2c(nn1-c1ccc(F)cc1)C(CCc1ccccc1)CCC2 (stereo partly drawn) [Compound 32] | 334 nM | 1750 nM |  |
| O=C(O)C[C@H](O)C[C@H](O)/C=C/c1nn(Cc2ccc(F)cc2)c2c1CCCCC2 (relative stereo) [Compound 9] |  |  | IC50 (HMG-CoA reductase; Table II): 100000 nM |
| O=C(O)C[C@H](O)C[C@H](O)/C=C/c1c2c(nn1-c1ccc(F)cc1)-c1ccccc1CCC2 (relative stereo) [Compound 36] | 2100 nM |  |  |
| CCOC(=O)C[C@H](O)C[C@H](O)/C=C/c1c2c(nn1-c1ccc(F)cc1)C(Cc1ccccc1)CCC2 (mixture of isomers) [Compound 47, Ethyl (E)-(3RS,5SR)-7-[7-benzyl-2-(4-fluorophenyl)-4,5,6,7-tetrahydro-2H-indazol-3-yl]-3,5-dihydroxy-6-heptenoate] |  |  | IC50 (HMG-CoA reductase; Table IV): 120 nM; IC50 (Hep-G2 cells; HepG2, Table IV): 290 nM |
| O=C(O)C[C@H](O)C[C@H](O)/C=C/c1c2c(nn1-c1ccc(Cl)cc1)CCCC2 (relative stereo) [Compound 26] | 8800 nM |  |  |
| O=C(O)C[C@H](O)C[C@H](O)/C=C/c1c2c(nn1-c1ccc(F)cc1)CCCC2 (relative stereo) [Compound 25] | 2500 nM |  |  |
| O=C(O)C[C@H](O)C[C@H](O)/C=C/c1nn(-c2ccc(F)cc2)c2c1CCCC2CCc1ccccc1 (stereo partly drawn) [Compound 7] |  |  | IC50 (Hep-G2 cells; HepG2, Table II): > 10000 nM |
| CC1CCCc2c(/C=C/[C@@H](O)C[C@@H](O)CC(=O)O)nn(-c3ccc(F)cc3)c21 (stereo partly drawn) [Compound 6] |  |  | IC50 (HMG-CoA reductase; Table II): 100000 nM |
| C/C(=C\c1c2c(nn1-c1ccc(F)cc1)CCCC2)[C@@H](O)C[C@@H](O)CC(=O)O (relative stereo) [Compound 27] | 2700 nM |  |  |
| CC(C)c1ccc(CC2CCCc3c2nn(-c2ccc(F)cc2)c3/C=C/[C@@H](O)C[C@@H](O)CC(=O)O)cc1 (stereo partly drawn) [Compound 18] | 14 nM | 260 nM |  |
| O=C(O)C[C@H](O)C[C@H](O)/C=C/c1c2c(nn1-c1ccc(F)cc1)C(Cc1ccccc1)CCC2 (stereo partly drawn) [Compound 31] | 85 nM | 220 nM |  |
| COc1ccc(CC2CCCc3c2nn(-c2ccc(F)cc2)c3/C=C/[C@@H](O)C[C@@H](O)CC(=O)O)cc1 (stereo partly drawn) [Compound 20] | 14 nM | 460 nM |  |
| O=C1C[C@H](O)C[C@@H](/C=C/c2c3c(nn2-c2ccc(F)cc2)CCCC3)O1 (relative stereo) [Compound 83] |  |  | IC50 (HMG-CoA reductase; Table V): 9000 nM |
| COC(=O)C[C@H](O)C[C@H](O)/C=C/c1c2c(nn1-c1ccc(F)cc1)C(Cc1ccc(C(C)C)cc1)CCC2 (stereo partly drawn) [Compound 43] |  |  | IC50 (Hep-G2 cells; HepG2, Table I): 120 nM |
| O=C(O)C[C@H](O)C[C@H](O)/C=C/c1c2c(nn1-c1ccc(F)cc1)C(CCCc1ccccc1)CCC2 (stereo partly drawn) [Compound 33] | 160 nM | 1100 nM |  |
| O=C(O)C[C@H](O)C[C@H](O)/C=C/c1c2c(nn1Cc1ccc(F)cc1)CCCCC2 (relative stereo) [Compound 38] | 23000 nM |  |  |

| SMILES | IC50 (HMG-CoA reductase; Table III) | IC50 (Hep-G2 cells; HepG2, Table III) | further results |
| --- | --- | --- | --- |
| O=C1C[C@H](O)C[C@@H](/C=C/c2c3c(nn2-c2ccc(F)cc2)C(Cc2ccc4ccccc4c2)CCC3)O1 (stereo partly drawn) [Compound 81] |  |  | IC50 (Hep-G2 cells; HepG2, Table V): 390 nM |
| CC1CCCc2c1nn(-c1ccc(F)cc1)c2/C=C/[C@@H](O)C[C@@H](O)CC(=O)O (stereo partly drawn) [Compound 28] | 1100 nM |  |  |
| O=C(O)C[C@H](O)C[C@H](O)/C=C/c1c2c(nn1-c1ccc(F)cc1)C(c1ccccc1)CCC2 (stereo partly drawn) [Compound 30] | 3100 nM |  |  |
| COC(=O)C[C@H](O)C[C@H](O)/C=C/c1c2c(nn1-c1ccc(F)cc1)C(Cc1ccc3ccccc3c1)CCC2 (stereo partly drawn) [Compound 42] |  |  | IC50 (Hep-G2 cells; HepG2, Table I): 365 nM |
| O=C(O)C[C@H](O)C[C@H](O)/C=C/c1c2c(nn1-c1ccc(F)cc1)C(Cc1ccc(Cl)cc1)CCC2 (stereo partly drawn) [Compound 16] | 58 nM | 360 nM |  |
| O=C(O)C[C@H](O)C[C@H](O)/C=C/c1c2c(nn1-c1ccc(F)cc1)-c1ccccc1CC2 (relative stereo) [Compound 22] | 13000 nM |  |  |
| O=C1C[C@H](O)C[C@@H](/C=C/c2c3c(nn2-c2ccc(F)cc2)C(Cc2ccccc2)CCC3)O1 (mixture of isomers) [Compound 79, (E)-(4RS,6SR)-6-[2-[7-Benzyl-2-(4-fluorophenyl)-4,5,6,7-tetrahydro-2H-indazol-3-yl]ethenyl]-4-hydroxy-3,4,5,6-tetrahydro-2H-pyran-2-one] |  |  | IC50 (HMG-CoA reductase; Table V): 750 nM; IC50 (Hep-G2 cells; HepG2, Table V): 260 nM |
| COc1ccc(CC2CCCc3c2nn(-c2ccc(F)cc2)c3/C=C/[C@@H](O)C[C@@H](O)CC(=O)O)cc1OC (stereo partly drawn) [Compound 15] | 168 nM | 3900 nM |  |
| O=C(O)C[C@H](O)C[C@H](O)/C=C/c1c2c(nn1-c1ccc(F)cc1)C(C1CCCCC1)CCC2 (stereo partly drawn) [Compound 23] | 7700 nM |  |  |
| COc1cccc(CC2CCCc3c2nn(-c2ccc(F)cc2)c3/C=C/[C@@H](O)C[C@@H](O)CC(=O)O)c1 (stereo partly drawn) [Compound 14] | 48 nM | 1090 nM |  |
| CCOC(=O)C[C@H](O)C[C@H](O)/C=C/c1c2c(nn1-c1ccc(F)cc1)C(Cc1cccc(OC)c1)CCC2 (stereo partly drawn) [Compound 58] |  |  | IC50 (HMG-CoA reductase; Table IV): 210 nM; IC50 (Hep-G2 cells; HepG2, Table IV): 800 nM |
| CC(C)(C)c1ccc(CC2CCCc3c2nn(-c2ccc(F)cc2)c3/C=C/[C@@H]2C[C@@H](O)CC(=O)O2)cc1 (stereo partly drawn) [Compound 82] |  |  | IC50 (HMG-CoA reductase; Table V): 70 nM; IC50 (Hep-G2 cells; HepG2, Table V): 230 nM |
| CCCC1CCCc2c1nn(-c1ccc(F)cc1)c2/C=C/[C@@H](O)C[C@@H](O)CC(=O)O (stereo partly drawn) [Compound 29] | 1300 nM |  |  |
| O=C(O)C[C@H](O)C[C@H](O)/C=C/c1c2c(nn1-c1ccc(F)cc1)C(Cc1cccc3ccccc13)CCC2 (stereo partly drawn) [Compound 11] | 26 nM | 370 nM |  |
| CCC(CC)CC1CCCc2c1nn(-c1ccc(F)cc1)c2/C=C/[C@@H]1C[C@@H](O)CC(=O)O1 (stereo partly drawn) [Compound 80] |  |  | IC50 (HMG-CoA reductase; Table V): 29000 nM |
| CCC(C)C1CCCc2c1nn(-c1ccc(F)cc1)c2/C=C/[C@@H](O)C[C@@H](O)CC(=O)O (stereo partly drawn) [Compound 35] | 1000 nM |  |  |
| O=C(O)C[C@H](O)C[C@H](O)/C=C/c1nn(-c2ccc(F)cc2)c2c1CCCC2C1CCCCC1 (stereo partly drawn) [Compound 4] |  |  | IC50 (HMG-CoA reductase; Table II): 47000 nM |
| O=C(O)C[C@H](O)C[C@H](O)/C=C/c1c2c(nn1-c1ccc(F)cc1)C(Cc1ccc(F)cc1)CCC2 (stereo partly drawn) [Compound 17] | 150 nM | 700 nM |  |
| CC(C)(C)c1ccc(CC2CCCc3c2nn(-c2ccc(F)cc2)c3/C=C/[C@@H](O)C[C@@H](O)CC(=O)O)cc1 (stereo partly drawn) [Compound 21] | 16 nM | 135 nM |  |
| O=C(O)C[C@H](O)C[C@H](O)/C=C/c1c2c(nn1-c1ccc(F)cc1)C(Cc1ccc(-c3ccccc3)cc1)CCC2 (stereo partly drawn) [Compound 1, (E)-(3RS,5SR)-7-[7-[(1,1'-Biphenyl)-4-ylmethyl]-2-(4-fluorophenyl)-4,5,6,7-tetrahydro-2H-indazol-3-yl]-3,5-dihydroxy-6-heptenoic acid.Sodium salt.Dihydrate] | 2.7 nM | 240 nM |  |
| CCC1CCCc2c1nn(-c1ccc(F)cc1)c2/C=C/[C@@H](O)C[C@@H](O)CC(=O)O (stereo partly drawn) [Compound 24] | 1000 nM |  |  |
| O=C(O)C[C@H](O)C[C@H](O)/C=C/c1c2c(nn1-c1ccc(F)cc1)C(Cc1ccc3ccccc3c1)CCC2 (stereo partly drawn) [Compound 13] | 5.6 nM | 330 nM |  |
| O=C(O)C[C@H](O)C[C@H](O)/C=C/c1nn(-c2ccc(F)cc2)c2c1CCC2 (relative stereo) [Compound 2] |  |  | IC50 (HMG-CoA reductase; Table II): 100000 nM |
| CCOC(=O)C[C@H](O)C[C@H](O)/C=C/c1c2c(nn1-c1ccc(F)cc1)C(Cc1ccc(Cl)cc1)CCC2 (stereo partly drawn) [Compound 60] |  |  | IC50 (Hep-G2 cells; HepG2, Table IV): 460 nM |
| CCC1CCCc2c(/C=C/[C@@H](O)C[C@@H](O)CC(=O)O)nn(-c3ccc(F)cc3)c21 (stereo partly drawn) [Compound 5] |  |  | IC50 (HMG-CoA reductase; Table II): 35000 nM |

Reference: US5250561A, “Tetrahydroindazole, tetrahydrocyclopentapyrazole, and hexahydrocycloheptapyrazole compounds and their use as HMG-COA reductase inhibitors” (Ortho Pharmaceutical Corporation, priority 1992, dated 1993)
